Results published in the supplement of paper PMC8671470.

Assays:
Settings in all cases: 72 h
SHI-1 [1] = assay: cell viability (% survival relative to DMSO control, bortezomib = 0%); higher = less cytotoxic
Summary of the method: (§1)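 Reported values are percent survival from duplicate wells, averaged. Fifteen myeloid leukaemia cell lines were treated in 384-well plates with compounds at 1, 10, 100, 1000 or 10000 nM for 72 h at 37 °C in 5% CO2. Signals from CellTiter-Glo luminescence were scaled with vehicle as 100% and a 10 µM positive control as 0%.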

MV4-11 [2] = assay: as above
Summary of the method: as §1

HL-60 [3] = assay: as above
Summary of the method: as §1

Mono-Mac-6 [4] = assay: as above
Summary of the method: as §1

LAMA-84 [5] = assay: as above
Summary of the method: as §1

KU-812 [6] = assay: as above
Summary of the method: as §1

ML-2 [7] = assay: as above
Summary of the method: as §1

K-562 [8] = assay: as above
Summary of the method: as §1

THP-1 [9] = assay: as above
Summary of the method: as §1

HEL [10] = assay: as above
Summary of the method: as §1

KCL-22 [11] = assay: as above
Summary of the method: as §1

BV-173 [12] = assay: as above
Summary of the method: as §1

MOLM-13 [13] = assay: as above
Summary of the method: as §1

KG-1 [14] = assay: as above
Summary of the method: as §1

NOMO-1 [15] = assay: as above
Summary of the method: as §1

SHI-1 [16] = test system: SHI-1
Summary of the method: (§2)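 For the IC50, dose–response curves were fitted with a log-logistic model. The data came from fifteen myeloid leukaemia cell lines grown in RPMI 1640 at densities in the linear growth range and incubated in 384-well plates for 72 h at 37 °C under 5% CO2. Doses were five tenfold steps from 1 to 10,000 nM in duplicate, and luminescent ATP viability was normalised to vehicle and to a positive control at 10 µM before four-parameter fitting.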

MV4-11 [17] = test system: MV4-11
Summary of the method: as §2

HL-60 [18] = test system: HL-60
Summary of the method: as §2

Mono-Mac-6 [19] = test system: Mono-Mac-6
Summary of the method: as §2

LAMA-84 [20] = test system: LAMA-84
Summary of the method: as §2

KU-812 [21] = test system: KU-812
Summary of the method: as §2

ML-2 [22] = test system: ML-2
Summary of the method: as §2

K-562 [23] = test system: K-562
Summary of the method: as §2

THP-1 [24] = test system: THP-1
Summary of the method: as §2

HEL [25] = test system: HEL
Summary of the method: as §2

KCL-22 [26] = test system: KCL-22
Summary of the method: as §2

BV-173 [27] = test system: BV-173
Summary of the method: as §2

MOLM-13 [28] = test system: MOLM-13
Summary of the method: as §2

KG-1 [29] = test system: KG-1
Summary of the method: as §2

NOMO-1 [30] = test system: NOMO-1
Summary of the method: as §2

c1ccc2nc(-c3nnc4sc(-c5cnccn5)nn34)ccc2c1
cell viability [%]
Settings	1 nM	10 nM	100 nM	1000 nM	10000 nM
BV-173 [12]	103	105	103	100	96.1
HEL [10]	95.3	96	93.7	95.1	99.4
HL-60 [3]	108	100	102	67.9	103
K-562 [8]	110	105	107	108	105
KCL-22 [11]	97.3	109	109	105	95.7
KG-1 [14]	110	107	99.4	91.9	84.6
KU-812 [6]	105	115	94.9	91.8	95.7
LAMA-84 [5]	100	104	105	95.4	94.1
ML-2 [7]	108	122	111	86.5	110
MOLM-13 [13]	99.6	108	95.3	86.7	90.4
MV4-11 [2]	96.4	107	108	88	111
Mono-Mac-6 [4]	111	108	108	91.1	98.5
NOMO-1 [15]	106	109	99.5	93.7	101
SHI-1 [1]	108	107	116	91.9	98
THP-1 [9]	105	103	105	88.5	99.3

Settings	IC50 (cell viability) [µM]
BV-173 [27]	> 10
HEL [25]	> 10
HL-60 [18]	> 10
K-562 [23]	> 10
KCL-22 [26]	> 10
KG-1 [29]	> 10
KU-812 [21]	> 10
LAMA-84 [20]	> 10
ML-2 [22]	> 10
MOLM-13 [28]	> 10
MV4-11 [17]	> 10
Mono-Mac-6 [19]	> 10
NOMO-1 [30]	> 10
SHI-1 [16]	> 10
THP-1 [24]	> 10
